# Assay results taken from PMC7717565, “Structure of the Lifeact–F-actin complex” (PLoS Biology, 2020).
# Where no end group is shown, it is not given here.
# Experiments:
# [1] = tested on: HEK 293T cells intoxicated with PTC3; test: Intoxication competition assay with PTC3 in HEK 293T cells (cell area); format: cell-based, human; details: 300 pM PTC3, 5 h, mCherry fusion expressed
# F-actin [2] = molecular target: F-actin (Oryctolagus cuniculus, UniProt P68135); test: Cosedimentation of Lifeact–mCherry with F-actin; format: binding, Rabbit (skeletal muscle α-actin); set-up: Bmax Value: unit not given here
# [3] = tested on: F-actin-rich patch in yeast cells; format: cell-based, Saccharomyces cerevisiae; details: Fig 3D
# [4] = tested on: F-actin-rich patch in yeast cells; format: cell-based, Saccharomyces cerevisiae; details: Fig 3E
# [5] = tested on: F-actin in yeast cells, WT actin; format: cell-based, Saccharomyces cerevisiae; details: for weighted colocalization coefficient of phalloidin with Lifeact–mCherry: native ABP140 promoter, fixed cells, ActinGreen 488, Fig 2B, mean of 15 cells from 2 independent experiments
# [6] = tested on: human tropomyosin alpha-1 binding to F-actin; test: Competition cosedimentation of F-actin with tropomyosin; details: Lifeact 100 uM, F-actin 3 μM, tropomyosin 3 μM
# Description: (§1) An aliquot of freshly thawed G-actin was centrifuged at 150,000 g using a TLA-55 rotor for 30 minutes at 4°C to remove possible aggregates. Then, actin was polymerized by incubation in F-buffer (120 mM KCl, 20 mM Tris pH 8, 2 mM MgCl2, 1 mM DTT, and 1 mM ATP) for 2 hours at room temperature or overnight at 4°C. For the cosedimentation experiments with myosin and tropomyosin, a 2-fold molar excess of phalloidin was added after the polymerization. Then, the actin filaments were pelleted using a TLA-55 rotor at 150,000 g for 30 minutes and resuspended in the following buffers: F-buffer was used for cosedimentations with tropomyosin or Lifeact–mCherry fusion proteins; 20 mM HEPES pH 6.5, 50 mM KCl, and 2 mM MgCl2 was used for cosedimentations with cofilin; and 120 mM KCl, 20 mM Tris pH 8, 2 mM MgCl2, and 1 mM DTT was used for cosedimentations with myosin.
# (§2) For the competition assays, Lifeact peptide was added to the mixture at the specified concentrations. […] The Kd values were calculated as previously described using GraphPad Prism software (GraphPad Software, USA) [34].
# (§3) Representative gels are shown. […] The error bars correspond to standard deviations of 3 independent experiments.
# [7] = tested on: human cofilin-1 binding to F-actin; test: Competition cosedimentation of F-actin with cofilin-1; details: Lifeact 100 uM, F-actin 4 μM, cofilin-1 4 μM, pH 6.5
# Description: as §1, §2, §3
# [8] = tested on: ExoY-MBP binding to F-actin; test: Competition cosedimentation of F-actin with ExoY-MBP; set-up: species or system Pseudomonas aeruginosa ExoY; rabbit actin; details: for fraction of ExoY cosedimented with F-actin: Lifeact 300 uM, F-actin 1 μM, ExoY-MBP 1 μM
# [9] = tested on: motor domain of human NM2C binding to F-actin; test: Competition cosedimentation of F-actin with NM2C motor domain; details: for fraction of myosin cosedimented with F-actin: Lifeact 100 uM, F-actin 0.2 μM, NM2C 0.2 μM, pH 8
# Description: The motor domain of nonmuscular myosin-2C (MYH14, isoform 2 from Homo sapiens) consisting of amino acids 1–799 was purified as described previously [32]
# Then, actin was polymerized by incubation in F-buffer (120 mM KCl, 20 mM Tris pH 8, 2 mM MgCl2, 1 mM DTT, and 1 mM ATP) for 2 hours at room temperature or overnight at 4°C. For the cosedimentation experiments with myosin and tropomyosin, a 2-fold molar excess of phalloidin was added after the polymerization. Then, the actin filaments were pelleted using a TLA-55 rotor at 150,000 g for 30 minutes and resuspended in the following buffers: F-buffer was used for cosedimentations with tropomyosin or Lifeact–mCherry fusion proteins; 20 mM HEPES pH 6.5, 50 mM KCl, and 2 mM MgCl2 was used for cosedimentations with cofilin; and 120 mM KCl, 20 mM Tris pH 8, 2 mM MgCl2, and 1 mM DTT was used for cosedimentations with myosin.
# as §2
# The error bars correspond to standard deviations of 3 independent experiments.
# TccC3HVR = test: ADP-ribosylation of actin by TccC3HVR; format: biochemical, Photorhabdus luminescens; details: for ADP-ribosylation level of actin (0 uM Lifeact = 1): Lifeact 100 uM, pH 8, 10 min 37°C
# F-actin [10] = details: ref [5],[6]; cited from earlier work
# Source text: Phalloidin and jasplakinolide are cyclic peptides derived from the death cap mushroom Amanita phalloides and marine sponge Jaspis johnstoni, respectively. They bind specifically to filamentous actin (F-actin), and when fused to a fluorescent probe, their derivatives allow visualization of the cell cytoskeleton by fluorescence microscopy. […] Recent electron cryo-microscopy (cryo-EM) studies from our group and others have uncovered h ...
# [11] = tested on: F-actin in yeast cells, actin D25Y/D222G; format: cell-based, Saccharomyces cerevisiae; details: confocal microscopy, Fig 2C, endogenous actin replaced with D25Y variant
# [12] = tested on: F-actin in yeast cells, actin L349M; format: cell-based, Saccharomyces cerevisiae; details: confocal microscopy, Fig 2C, endogenous actin replaced with L349M variant
substance,measurement,setting,value
"E17K: Lifeact E17K variant fused to mCherry (MGVADLIKKFESISKEK; also: fused to mCherry, His tag, end not given here)","effect on PTC3/TccC3HVR toxicity (cytoskeletal collapse, shrinkage)",[1],significantly reduced
same,Bmax Value,"F-actin [2]; 3 μM Lifeact–mCherry, F-buffer pH 8, fit value, Std dev in next column",0.9222
same,Kd,"F-actin [2]; 3 μM Lifeact–mCherry, F-buffer pH 8, full-precision fit value, Std dev in next column, unit as printed in Fig 3C",8.08 µM
same,change of average Lifeact–mCherry to phalloidin signal ratio vs WT,[3],insignificant increase
same,change of average patch to background signal ratio vs WT,[4],insignificant increase
same,staining of actin-rich structures compared with WT,"[5]; confocal microscopy, Fig 2A",stained actin-rich structures in a similar way as WT Lifeact
same,weighted colocalization coefficient of phalloidin with Lifeact–mCherry,[5],0.8293
"F10A Lifeact: Lifeact F10A mutant peptide, which only binds weakly to F-actin (MGVADLIKKAESISKEE)",fraction of tropomyosin cosedimented with F-actin,[6]; 1st repeat,0.4801
same,fraction of tropomyosin cosedimented with F-actin,[6]; 2nd repeat,0.5601
same,fraction of tropomyosin cosedimented with F-actin,[6]; 3rd repeat,0.4901
same,fraction of tropomyosin cosedimented with F-actin,[6]; mean of 3,0.5101
same,fraction of cofilin cosedimented with F-actin,[7]; 1st repeat,0.5246
same,fraction of cofilin cosedimented with F-actin,[7]; 2nd repeat,0.4576
same,fraction of cofilin cosedimented with F-actin,[7]; 3rd repeat,0.5496
same,fraction of cofilin cosedimented with F-actin,[7]; mean of 3,0.5106
same,effect on ExoY binding to F-actin,"[8]; Fig 5A, 5B",did not impair formation of the ExoY-F-actin complex
same,fraction of ExoY cosedimented with F-actin,[8]; 1st repeat,0.8832
same,fraction of ExoY cosedimented with F-actin,[8]; 2nd repeat,0.8982
same,fraction of ExoY cosedimented with F-actin,[8]; 3rd repeat,0.9357
same,fraction of ExoY cosedimented with F-actin,[8]; mean of 3,0.9057
same,binding to F-actin,"F-actin [2]; in words, no value",only binds weakly to F-actin
same,effect on myosin binding to F-actin,"[9]; Fig 4B, 4C",nor could F10A Lifeact compete with cofilin-1 or NM2C
same,fraction of myosin cosedimented with F-actin,[9]; 1st repeat,0.8484
same,fraction of myosin cosedimented with F-actin,[9]; 2nd repeat,0.9522
same,fraction of myosin cosedimented with F-actin,[9]; 3rd repeat,0.8926
same,fraction of myosin cosedimented with F-actin,[9]; mean of 3,0.8977
same,effect on the level of ADP-ribosylation,"TccC3HVR; 100 μM, control reaction",did not decrease the level of ADP-ribosylation at all
same,ADP-ribosylation level of actin (0 uM Lifeact = 1),TccC3HVR; 1st repeat,1.142
same,ADP-ribosylation level of actin (0 uM Lifeact = 1),TccC3HVR; 2nd repeat,1.587
same,ADP-ribosylation level of actin (0 uM Lifeact = 1),TccC3HVR; 3rd repeat,0.8227
same,ADP-ribosylation level of actin (0 uM Lifeact = 1),TccC3HVR; mean of 3,1.184
Phalloidin,effect on F-actin,F-actin [10],strongly stabilize F-actin
WT Lifeact–mCherry: wild-type Lifeact fused to mCherry [reference compound],"effect on PTC3/TccC3HVR toxicity (cytoskeletal collapse, shrinkage)",[1],significantly reduced
same,actin-rich structures stained by Lifeact–mCherry,[11],absent
same,actin-rich structures stained by Lifeact–mCherry,[12],absent
same,"actin-rich structures (patches, cables, contractile rings) stained by Lifeact–mCherry","[5]; confocal microscopy, Fig 2A","typical actin-rich assemblies such as patches, cables, and contractile rings"
same,weighted colocalization coefficient of phalloidin with Lifeact–mCherry,[5],0.9009
same,factor of decrease of the level of ADP ribosylation,TccC3HVR; 3 μM,2
jasplakinolide,effect on F-actin,F-actin [10],strongly stabilize F-actin
